Measured values taken from patent US8912120B2, “Herbicidal compositions comprising 4-amino-3-chloro-5-fluoro-6-(4-chloro-2-fluoro-3-methoxyphenyl) pyridine-2-carboxylic acid or a derivative thereof and synthetic auxin herbicides” (Dow AgroSciences, LLC., priority 2012, dated 2014).
Several values for one entry are separate records, joined by “and”; a condition that tells them apart may be missing. Equal entries are not always repeated.

Key:
CYPES = test: Example I: postemergence foliar-applied herbicidal mixtures, direct seeded rice, CYPES; type: in vivo, Cyperus esculentus (yellow nutsedge); details: 4.38 gae/ha
Protocol: (§6) The soil matrix was contained in plastic pots with a volume of 1 quart and a surface area of 83.6 square centimeters (cm^2). […] The plants were grown for 8-22 days in a greenhouse with an approximate 14 h photoperiod which was maintained at about 29° C. during the day and 26° C. during the night. Nutrients (Peters Excel® 15-5-15 5-Ca 2-Mg and iron chelate) were applied in the irrigation solution as needed and water was added on a regular basis. Supplemental lighting was provided with overhead metal halide 1000-Watt lamps as necessary. The plants were employed for testing when they reached the first through fourth true leaf stage.
(§7) Treatments consisted of the acid or esters of 4-amino-3-chloro-5-fluoro-6-(4-chloro-2-fluoro-3-methoxy-phenyl)pyridine-2-carboxylic acid (Compound A), each formulated as an SC (suspension concentrate), and various herbicidal components alone and in combination. Forms of compound A were applied on an acid equivalent basis.
(§8) For treatments comprised of formulated compounds, measured amounts of compounds were placed individually in 25 mL glass vials and diluted in a volume of 1.25% (v/v) Agri-Dex® crop oil concentrated to obtain 12× stock solutions. […] Application solutions were prepared by adding an appropriate amount of each stock solution (e.g., 1 mL) and diluted to the appropriate final concentrations with the addition of 10 mL of an aqueous mixture of 1.25% (v/v) crop oil concentrate so that the final spray solutions contained 1.25+/−0.05% (v/v) crop oil concentrate.
(§9) All stock solutions and applications solutions were visually inspected for compound compatibility prior to application. Spray solutions were applied to the plant material with an overhead Mandel track sprayer equipped with a 8002E nozzles calibrated to deliver 187 L/ha over an application area of 0.503 m^2 at a spray height of 18 to 20 inches (46 to 50 cm) above average plant canopy height. Control plants were sprayed in the same manner with the solvent blank.
(§10) The treated plants and control plants were placed in a greenhouse as described above and watered by sub-irrigation to prevent wash-off of the test compounds. After approximately 3 weeks, the condition of the test plants as compared with that of the untreated plants was determined visually and scored on a scale of 0 to 100 percent where 0 corresponds to no injury or growth inhibition and 100 corresponds to complete kill.
(§11) Colby's equation was used to determine the herbicidal effects expected from the mixtures (Colby, S. R. 1967. Calculation of the synergistic and antagonistic response of herbicide combinations. Weeds 15:20-22).
(§12) The following equation was used to calculate the expected activity of mixtures containing two active ingredients, A and B: Expected=A+B−(A×B/100) […]

CYPDI = test: Example I: postemergence foliar-applied herbicidal mixtures, direct seeded rice, CYPDI; type: in vivo, Cyperus difformis (smallflower umbrella sedge)
Protocol: as §6, §7, §8, §9, §10, §11, §12

FIMMI = test: Example II: in-water applied herbicidal mixtures, transplanted paddy rice, FIMMI; type: in vivo, Fimbristylis miliacea (globe fringerush); details: 22 DAA; 10.6 gae/ha
Protocol: The prepared mud was dispensed in 365 mL aliquots into 16-ounce (oz.) non-perforated plastic pots with a surface area of 86.59 square centimeters (cm^2) leaving a headspace of 3 centimeters (cm) in each pot Mud was allowed to dry overnight prior to planting or transplanting. Rice seeds were planted in Sun Gro MetroMix® 306 planting mixture, which typically has a pH of 6.0 to 6.8 and an organic matter content of about 30 percent, in plastic plug trays. Seedlings at the second or third leaf stage of growth were transplanted into 840 mL of mud contained in 32-oz. non-perforated plastic pots with a surface area of 86.59 cm^2 4 days prior to herbicide application. […] Nutrients were added as Osmocote® (19:6:12, N:P:K^+ minor nutrients) at 2 g per 16-oz. pot and 4 g per 32-oz. pot.
Applications were made by injecting with a pipetter appropriate amounts of the application solutions, individually and sequentially, into the aqueous layer of the paddy. Control plants were treated in the same manner with the solvent blank. Applications were made so that all treated plant material received the same concentrations of acetone and crop oil concentrate.

SCPJU = test: Example II: in-water applied herbicidal mixtures, transplanted paddy rice, SCPJU; type: in vivo, Schoenoplectus juncoides (Japanese bulrush); details: for Visual Weed Control (%) - 21 DAA SCPJU Obs / Visual Weed Control (%) - 25 DAA SCPJU Obs: in-water application
Method in brief: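 Rice transplanted (2nd–3rd leaf) into non-perforated mud pots 4 d pre-application; Osmocote 19:6:12 fertiliser. In-water application: pipette injection into aqueous layer, components individually/sequentially. Solvent blank controls; acetone and crop oil concentrate equalised.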

PANDI = test: Example III: postemergence foliar-applied herbicidal mixtures, row crop weeds, PANDI; type: in vivo, Panicum dichotomiflorum (fall panicum); details: 16 DAA; 3.75 gae/ha
Protocol: (§1) The plants were grown for 7-31 days (d) in a greenhouse with an approximate 15 hour (h) photoperiod which was maintained at about 23-29° C. during the day and 22-28° C. during the night.

ISCRU = test: Example I: postemergence foliar-applied herbicidal mixtures, direct seeded rice, ISCRU; type: in vivo, Ischaemum rugosum (saramollagrass)
Protocol: as §6, §7, §8, §9, §10, §11
The following equation was used to calculate the expected activity of mixtures containing two active ingredients, A and B: Expected=A+B−(A×B/100)
A=observed efficacy of active ingredient A at the same concentration as used in the mixture.
B=observed efficacy of active ingredient B at the same concentration as used in the mixture.

PANMI = test: Example III: postemergence foliar-applied herbicidal mixtures, row crop weeds, PANMI; type: in vivo, Panicum miliaceum (wild-proso millet); details: 16 DAA
Protocol: as §1

SORHA = test: Example III: postemergence foliar-applied herbicidal mixtures, row crop weeds, SORHA; type: in vivo, Sorghum halepense (johnsongrass); details: 13 DAA
Protocol: as §1

AMARE = test: Example IV: postemergence foliar-applied herbicidal mixtures, weed control in cereal crops in the greenhouse, AMARE; type: in vivo, Amaranthus retroflexus (redroot pigweed); details: alone, 8.75 gai/ha, 20-22 days
Method in brief: (§2)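 Greenhouse plants were grown 7–36 days in potting mix (pH 6.0–6.8) under ~14 h photoperiod at about 18 °C day/17 °C night. Postemergence foliar sprays (12 mL) contained the second cereal herbicide with experimental compound as two- and three-way mixtures.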

BRSNN = test: Example IV: postemergence foliar-applied herbicidal mixtures, cereal crops, BRSNN; type: in vivo, Brassica napus (volunteer canola); details: 8.75 gai/ha
Method in brief: as §2

CIRAR [1] = test: Example IV: postemergence foliar-applied herbicidal mixtures, cereal crops, CIRAR; type: in vivo, Cirsium arvense (Canada thistle); details: alone, 8.75 gai/ha, 20-22 days
Protocol: Seeds of the desired test plant species were planted in Sun Gro MetroMix 306 planting mixture, which typically has a pH of 6.0 to 6.8 and an organic matter content of about 30 percent, in plastic pots with a surface area of 103.2 square centimeters (cm^2). […] The plants were grown for 7-36 days in a greenhouse with an approximate 14 hour photoperiod which was maintained at about 18° C. during the day and 17° C. during the night.
Spray solutions of the second cereal herbicide and experimental compound mixtures were prepared by adding the stock solutions to the appropriate amount of dilution solution to form 12 mL spray solution with active ingredients in two- and three-way combinations.

VIOTR = test: Example IV: postemergence foliar-applied herbicidal mixtures, cereal crops, VIOTR; type: in vivo, Viola tricolor (wild pansy); details: 8.75 gai/ha
Method in brief: as §2

CASOB = test: Example V: postemergence herbicidal activity of mixtures in forage crops (greenhouse), CASOB; type: in vivo, Cassia obtusifolia (sicklepod); details: alone, foliar, approximately 21 days
Method in brief: (§3)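 Plants grown from seed or root cuttings in MetroMix 306 (pH 6.0–6.8) for 14–60 days in greenhouse, ~14 h photoperiod, ~28/24 °C day/night. Foliar spray of two-way mixtures of the second herbicide or experimental compounds applied postemergence.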

CENMA = test: Example V: postemergence herbicidal activity of mixtures in forage crops, CENMA; type: in vivo, Centaurea maculosa (spotted knapweed); details: alone, foliar, approximately 21 days
Method in brief: as §3

CIRAR [2] = test: Example V: postemergence herbicidal activity of mixtures in forage crops, CIRAR; type: in vivo, Cirsium arvense (Canada thistle); details: alone, foliar, approximately 21 days
Protocol: (§4) Seeds or root cuttings of the desired test plant species were planted in Sun Gro MetroMix® 306 planting mixture, which typically has a pH of 6.0 to 6.8 and an organic matter content of about 30 percent, in plastic pots with a surface area of 126.6 square centimeters (cm^2). […] The plants were grown for 14-60 days in a greenhouse with an approximate 14 hour photoperiod which was maintained at approximately 28° C. during the day and 24° C. during the night.
(§5) Spray solutions of the second herbicide or experimental compound mixtures were prepared by adding the stock solutions to the appropriate amount of dilution solution to form 12 mL spray solution with active ingredients in two-way combinations.

SIDSP = test: Example V: postemergence herbicidal activity of mixtures in forage crops, SIDSP; type: in vivo, Sida spinosa (prickly sida); details: alone, foliar, approximately 21 days
Protocol: as §4, §5

SINAR = test: Example V: postemergence herbicidal activity of mixtures in forage crops, SINAR; type: in vivo, Sinapis arvensis (wild mustard); details: alone, foliar, approximately 21 days
Method in brief: as §3

SONAR = test: Example V: postemergence herbicidal activity of mixtures in forage crops, SONAR; type: in vivo, Sonchus arvensis (field sowthistle); details: alone, foliar, approximately 21 days
Protocol: as §4, §5

SOOSS = test: Example V: postemergence herbicidal activity of mixtures in forage crops, SOOSS; type: in vivo, Solidago L. spec. (goldenrod); details: alone, foliar, approximately 21 days
Protocol: as §4, §5

TRFRE = test: Example V: postemergence herbicidal activity of mixtures in forage crops, TRFRE; type: in vivo, Trifolium repens (white clover); details: alone, foliar, approximately 21 days
Protocol: as §4, §5

With `COc1c(Cl)ccc(-c2nc(C(=O)O)c(Cl)c(N)c2F)c1F` [Compound A Acid, 4-amino-3-chloro-6-(4-chloro-2-fluoro-3-methoxyphenyl)-5-fluoropyridine-2-carboxylic acid] the “Visual Weed Control (%) - 21 DAA CYPES Obs” value (CYPES) was 18%, the “Visual Weed Control (%) - 21 DAA CYPDI Obs” value (CYPDI; 4.38 gae/ha) was 50% and the “Visual Weed Control (%) - 21 DAA CYPDI Obs” value (CYPDI; 8.75 gae/ha) was 85%. For the same compound, the “Visual Weed Control (%) Obs” value (FIMMI) was 40%, the “Visual Weed Control (%) - 21 DAA SCPJU Obs” value (SCPJU; 8.75 gae/ha) was 15% and the “Visual Weed Control (%) - 25 DAA SCPJU Obs” value (SCPJU; 8.75 gae/ha) was 65%. For the same compound, the “Visual Weed Control (%) - 21 DAA SCPJU Obs” value (SCPJU; 17.5 gae/ha) was 80%, the “Visual Weed Control (%) - 25 DAA SCPJU Obs” value (SCPJU; 17.5 gae/ha) was 80% and the “Visual Weed Control (%) Obs” value (SCPJU; 22 DAA, 10.6 gae/ha) was 60%. The “Visual Weed Control (%) Obs” value (SCPJU; 25 DAA, 8.75 gae/ha) was 65%, the “Visual Weed Control (%) Obs” value (SCPJU; 25 DAA, 17.5 gae/ha) was 80% and the “Visual Weed Control (%) Obs” value (SCPJU; 25 DAA, 35 gae/ha) was 95%. For the same compound, the “Visual Weed Control (%) - 25 DAA SCPJU Obs” value (SCPJU; 35 gae/ha) was 95% and the “Visual Weed Control (%) Obs” value (PANDI) was 60%.

For `COc1c(Cl)ccc(-c2nc(C(=O)OCc3ccccc3)c(Cl)c(N)c2F)c1F` [Compound A Benzyl Ester, benzyl ester of 4-amino-3-chloro-5-fluoro-6-(4-chloro-2-fluoro-3-methoxy-phenyl)pyridine-2-carboxylic acid], the “Visual Weed Control (%) - 21 DAA ISCRU Obs” value (ISCRU; 8 gae/ha) was 20%, the “Visual Weed Control (%) - 21 DAA ISCRU Obs” value (ISCRU; 16 gae/ha) was 0% and the “Visual Weed Control (%) Obs” value (PANMI; 3.75 gae/ha) was 15%. The “Visual Weed Control (%) Obs” value (PANMI; 7.5 gae/ha) was 50%, the “Visual Weed Control (%) Obs” value (PANMI; 15 gae/ha) was 75% and the “Visual Weed Control (%) Obs” value (SORHA; 3.75 gae/ha) was 0%. For the same compound, the “Visual Weed Control (%) Obs” value (SORHA; 7.5 gae/ha) was 0%, the “Visual Weed Control (%) Obs” value (SORHA; 15 gae/ha) was 10% and the “AMARE Ob (observed value)” value (AMARE) was 60%. For the same compound, the “Weed Control Ob” value (BRSNN; after 20-22 days) was 23%, the “BRSNN Ob (observed value)” value (BRSNN; alone, foliar, 20-22 days) was 23% and the “CIRAR Ob (observed value)” value (CIRAR [1]) was 70%. The “Weed Control Ob” value (VIOTR; after 20-22 days) was 30%, the “VIOTR Ob (observed value)” value (VIOTR; alone, foliar, 20-22 days) was 30% and the “CASOB Obs (observed value)” value (CASOB; 1.1 gae/ha) was 28%. For the same compound, the “CASOB Obs (observed value)” value (CASOB; 2.2 gae/ha) was 33%, the “CASOB Obs (observed value)” value (CASOB; 4.4 gae/ha) was 38% and the “CENMA Obs (observed value)” value (CENMA; 4.4 gae/ha) was 70%. For the same compound, the “CENMA Obs (observed value)” value (CENMA; 8.8 gae/ha) was 85%, the “CENMA Obs (observed value)” value (CENMA; 17.5 gae/ha) was 95% and the “CIRAR Obs (observed value)” value (CIRAR [2]; 2.2 gae/ha) was 25%. For the same compound, the “CIRAR Obs (observed value)” value (CIRAR [2]; 4.4 gae/ha) was 30% and 25%, the “CIRAR Obs (observed value)” value (CIRAR [2]; 8.8 gae/ha) was 30% and the “CIRAR Obs (observed value)” value (CIRAR [2]; 17.5 gae/ha) was 30%. For the same compound, the “SIDSP Obs (observed value)” value (SIDSP; 1.1 gae/ha) was 72%, the “SIDSP Obs (observed value)” value (SIDSP; 2.2 gae/ha) was 77% and the “SIDSP Obs (observed value)” value (SIDSP; 4.4 gae/ha) was 85%. The “SINAR Obs (observed value)” value (SINAR; 1.1 gae/ha) was 72%, the “SINAR Obs (observed value)” value (SINAR; 2.2 gae/ha) was 98% and the “SINAR Obs (observed value)” value (SINAR; 4.4 gae/ha) was 80% and 100%. For the same compound, the “SINAR Obs (observed value)” value (SINAR; 8.8 gae/ha) was 100%, the “SINAR Obs (observed value)” value (SINAR; 17.5 gae/ha) was 100% and the “SONAR Obs (observed value)” value (SONAR; 4.4 gae/ha) was 65%. For the same compound, the “SONAR Obs (observed value)” value (SONAR; 8.8 gae/ha) was 100%, the “SONAR Obs (observed value)” value (SONAR; 17.5 gae/ha) was 95% and the “SOOSS Obs (observed value)” value (SOOSS; 2.2 gae/ha) was 15%. For the same compound, the “SOOSS Obs (observed value)” value (SOOSS; 17.5 gae/ha) was 100%, the “TRFRE Obs (observed value)” value (TRFRE; 4.4 gae/ha) was 0% and the “TRFRE Obs (observed value)” value (TRFRE; 8.8 gae/ha) was 10%. The “TRFRE Obs (observed value)” value (TRFRE; 17.5 gae/ha) was 30%.
